Source: PubChem BioAssay AID328 (DTP/NCI, 2004)
Several values for one entry are separate records, joined by “and”; a condition that tells them apart may be missing. Equal values may be shown once. Inconclusive results and toxic doses are left out.

System: BDF1 mice, P388 leukemia ip, median survival T/C
Assay: NCI In Vivo Anticancer Drug Screen. Data for tumor model P388 Leukemia (intraperitoneal) in B6D2F1 (BDF1) mice
Settings: endpoint: median survival time, higher = longer survival
Summary of the method: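 Steps: implant the tumour, treat one group with compound and another with vehicle, record survival, then divide treated by control.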

[1] = dose: 100.0 mg/kg/injection, schedule: Q01DX009 (ip), vehicle: saline
[2] = dose: 100.0 mg/kg/injection, schedule: Q04DX003 (ip), vehicle: saline sonified
[3] = dose: 200.0 mg/kg/injection, schedule: Q01DX009 (ip), vehicle: saline
[4] = dose: 200.0 mg/kg/injection, schedule: Q04DX003 (ip), vehicle: saline sonified
[5] = dose: 400.0 mg/kg/injection, schedule: Q04DX003 (ip), vehicle: saline sonified
[6] = dose: 50.0 mg/kg/injection, schedule: Q01DX009 (ip), vehicle: saline with Tween-80
[7] = dose: 100.0 mg/kg/injection, schedule: Q01DX009 (ip), vehicle: saline with Tween-80
[8] = dose: 100.0 mg/kg/injection, schedule: Q04DX003 (ip), vehicle: Klucel (hydroxypropylcellulose) (HPC)
[9] = dose: 200.0 mg/kg/injection, schedule: Q04DX003 (ip), vehicle: Klucel (hydroxypropylcellulose) (HPC)

For `CN1CCC(OC(N)=O)CC1`, the T/C [1] was 109 % of control, the T/C (dose: 100.0 mg/kg/injection, schedule: Q04DX003 (ip), vehicle: alcohol) was 100 % of control and the T/C [2] was 100 % of control. The T/C (dose: 132.0 mg/kg/injection, schedule: Q01DX008 (ip), vehicle: saline) was 95 % of control, the T/C (dose: 132.0 mg/kg/injection, schedule: Q01DX009 (ip), vehicle: saline) was 113 % of control and the T/C (dose: 200.0 mg/kg/injection, schedule: Q01DX008 (ip), vehicle: saline) was 104 % of control. The T/C [3] was 109 % of control, the T/C (dose: 200.0 mg/kg/injection, schedule: Q04DX003 (ip), vehicle: alcohol) was 100 % of control and the T/C [4] was 104 % of control. For the same molecule, the T/C (dose: 300.0 mg/kg/injection, schedule: Q01DX008 (ip), vehicle: saline) was 104 % of control, the T/C (dose: 300.0 mg/kg/injection, schedule: Q01DX009 (ip), vehicle: saline) was 113 % of control and the T/C (dose: 400.0 mg/kg/injection, schedule: Q01DX009 (ip), vehicle: saline) was 95 % of control. For the same molecule, the T/C (dose: 400.0 mg/kg/injection, schedule: Q04DX003 (ip), vehicle: alcohol) was 118 % of control and the T/C [5] was 100 % of control.
`CCCCCCCCSC(=S)SCC(=O)O` was tested, and the T/C [6] was 100 % of control and the T/C [7] was 100 % of control.
`O=[N+]([O-])c1ccc(NC2CCCCC2)c2c1no[n+]2[O-]` was tested, and the T/C (dose: 6.25 mg/kg/injection, schedule: Q01DX009 (ip), vehicle: saline) was 95 % of control, the T/C (dose: 12.5 mg/kg/injection, schedule: Q01DX009 (ip), vehicle: saline) was 97 % of control and the T/C (dose: 25.0 mg/kg/injection, schedule: Q01DX009 (ip), vehicle: saline) was 95 % of control.
`CC(=O)CC(C)=O.CC(=O)CC(C)=O.O.O.[Ni]` was tested, and the T/C (dose: 6.25 mg/kg/injection, schedule: Q04DX003 (ip), vehicle: saline) was 108 % of control, the T/C (dose: 12.5 mg/kg/injection, schedule: Q04DX003 (ip), vehicle: saline) was 104 % of control and the T/C (dose: 25.0 mg/kg/injection, schedule: Q04DX003 (ip), vehicle: saline) was 114 % of control.
For `O=c1[nH]cnc2sc3c(c12)CCCC3`, the T/C [2] was 95 % of control, the T/C [4] was 100 % of control and the T/C [5] was 100 % of control.
With `O=C1C(CO)=C[C@@H](O)[C@H]2O[C@@H]12` the T/C (dose: 0.75 mg/kg/injection, schedule: Q01DX010 (ip), vehicle: saline) was 95 % of control, the T/C (dose: 1.5 mg/kg/injection, schedule: Q01DX010 (ip), vehicle: saline) was 110 % of control and the T/C (dose: 3.0 mg/kg/injection, schedule: Q01DX010 (ip), vehicle: saline) was 95 % of control and 120 % of control. For the same molecule, the T/C (dose: 6.0 mg/kg/injection, schedule: Q01DX010 (ip), vehicle: saline) was 95 % of control, the T/C (dose: 6.2 mg/kg/injection, schedule: Q01DX001 (ip), vehicle: saline) was 155 % of control and the T/C (dose: 12.0 mg/kg/injection, schedule: Q01DX010 (ip), vehicle: saline) was 100 % of control. For the same molecule, the T/C (dose: 12.5 mg/kg/injection, schedule: Q01DX001 (ip), vehicle: saline) was 160 % of control, the T/C (dose: 24.0 mg/kg/injection, schedule: Q01DX010 (ip), vehicle: saline) was 114 % of control and 115 % of control and the T/C (dose: 25.0 mg/kg/injection, schedule: Q01DX001 (ip), vehicle: saline) was 150 % of control. For the same molecule, the T/C (dose: 50.0 mg/kg/injection, schedule: Q01DX010 (ip), vehicle: saline) was 110 % of control, the T/C (dose: 96.0 mg/kg/injection, schedule: Q01DX010 (ip), vehicle: saline) was 160 % of control and 161 % of control and the T/C (dose: 192.0 mg/kg/injection, schedule: Q01DX010 (ip), vehicle: saline) was 160 % of control. For the same molecule, the T/C (dose: 384.0 mg/kg/injection, schedule: Q01DX010 (ip), vehicle: saline) was 175 % of control.
In the case of `O=C(NO)Nc1nc(Cl)c(Cl)nc1Cl`, the T/C (dose: 3.12 mg/kg/injection, schedule: Q01DX009 (ip), vehicle: water) is reported as 104 % of control, the T/C (dose: 6.25 mg/kg/injection, schedule: Q01DX009 (ip), vehicle: water) is reported as 110 % of control and the T/C (dose: 6.25 mg/kg/injection, schedule: Q04DX003 (ip), vehicle: water) is reported as 98 % of control and 101 % of control. The T/C (dose: 12.5 mg/kg/injection, schedule: Q01DX009 (ip), vehicle: water) was 110 % of control, the T/C (dose: 12.5 mg/kg/injection, schedule: Q04DX003 (ip), vehicle: water) was 100 % of control and 113 % of control and the T/C (dose: 25.0 mg/kg/injection, schedule: Q01DX009 (ip), vehicle: water) was 118 % of control. For the same molecule, the T/C (dose: 25.0 mg/kg/injection, schedule: Q04DX003 (ip), vehicle: water) was 98 % of control and 118 % of control, the T/C (dose: 50.0 mg/kg/injection, schedule: Q04DX003 (ip), vehicle: water) was 100 % of control and 109 % of control and the T/C (dose: 100.0 mg/kg/injection, schedule: Q01DX009 (ip), vehicle: water) was 118 % of control. The T/C (dose: 100.0 mg/kg/injection, schedule: Q04DX003 (ip), vehicle: water) was 109 % of control.
`Nc1nc(SCC(=O)c2ccccc2)c2[nH]cnc2n1` was tested, and the T/C (dose: 100.0 mg/kg/injection, schedule: Q01DX009 (ip), vehicle: saline sonified) was 115 % of control, the T/C (dose: 100.0 mg/kg/injection, schedule: Q04DX003 (ip), vehicle: saline with Tween-80) was 109 % of control and the T/C (dose: 200.0 mg/kg/injection, schedule: Q01DX009 (ip), vehicle: saline sonified) was 110 % of control. For the same molecule, the T/C (dose: 200.0 mg/kg/injection, schedule: Q04DX003 (ip), vehicle: saline with Tween-80) was 113 % of control, the T/C (dose: 400.0 mg/kg/injection, schedule: Q01DX009 (ip), vehicle: saline sonified) was 110 % of control and the T/C (dose: 400.0 mg/kg/injection, schedule: Q04DX003 (ip), vehicle: saline with Tween-80) was 118 % of control.
With `CC(C)COC(=O)C1(N)CCCC1` the T/C (dose: 50.0 mg/kg/injection, schedule: Q01DX009 (ip), vehicle: saline) was 100 % of control, the T/C (dose: 66.0 mg/kg/injection, schedule: Q01DX009 (ip), vehicle: saline with Tween-80) was 95 % of control and 108 % of control and the T/C [1] was 177 % of control. For the same molecule, the T/C (dose: 150.0 mg/kg/injection, schedule: Q01DX009 (ip), vehicle: saline with Tween-80) was 108 % of control and 116 % of control and the T/C [3] was 95 % of control.
With `C1CC2CCCC3CC(B4OCCO4)CC(C1)C23` (stereo unspecified) (tested in a mixture with another compound) the T/C (dose: 100.0 mg/kg/injection, schedule: Q04DX003 (ip), vehicle: other) was 120 % of control, the T/C (dose: 200.0 mg/kg/injection, schedule: Q04DX003 (ip), vehicle: other) was 100 % of control and the T/C (dose: 400.0 mg/kg/injection, schedule: Q04DX003 (ip), vehicle: other) was 100 % of control.
`c1ccc(Nc2ccc(Nc3ccccc3)cc2)cc1` was tested, and the T/C (dose: 50.0 mg/kg/injection, schedule: Q04DX003 (ip), vehicle: Klucel (hydroxypropylcellulose) (HPC)) was 118 % of control, the T/C (dose: 100.0 mg/kg/injection, schedule: Q01DX001 (ip), vehicle: Klucel (hydroxypropylcellulose) (HPC)) was 90 % of control and the T/C [8] was 104 % of control. The T/C (dose: 200.0 mg/kg/injection, schedule: Q01DX001 (ip), vehicle: Klucel (hydroxypropylcellulose) (HPC)) was 100 % of control, the T/C [9] was 104 % of control and the T/C (dose: 400.0 mg/kg/injection, schedule: Q01DX001 (ip), vehicle: Klucel (hydroxypropylcellulose) (HPC)) was 90 % of control.
`CSc1ccc(O)c(S)c1` was tested, and the T/C [6] was 118 % of control, the T/C [7] was 122 % of control and the T/C (dose: 200.0 mg/kg/injection, schedule: Q01DX009 (ip), vehicle: saline with Tween-80) was 124 % of control.
For `CCOC(=O)c1cnc(SCc2ccccc2Cl)nc1N1CC1`, the T/C (dose: 10.6 mg/kg/injection, schedule: Q01DX009 (ip), vehicle: Klucel (hydroxypropylcellulose) (HPC)) was 108 % of control, the T/C (dose: 28.05 mg/kg/injection, schedule: Q01DX009 (ip), vehicle: Klucel (hydroxypropylcellulose) (HPC)) was 114 % of control and the T/C (dose: 63.75 mg/kg/injection, schedule: Q01DX009 (ip), vehicle: Klucel (hydroxypropylcellulose) (HPC)) was 152 % of control.
For `O=C(CC(=O)C(F)(F)C(F)(F)C(F)(F)F)c1csc2ccccc12`, the T/C (dose: 6.25 mg/kg/injection, schedule: Q01DX009 (ip), vehicle: Klucel (hydroxypropylcellulose) (HPC)) was 91 % of control, the T/C (dose: 12.5 mg/kg/injection, schedule: Q01DX009 (ip), vehicle: Klucel (hydroxypropylcellulose) (HPC)) was 95 % of control and the T/C (dose: 25.0 mg/kg/injection, schedule: Q01DX009 (ip), vehicle: Klucel (hydroxypropylcellulose) (HPC)) was 95 % of control. The T/C (dose: 25.0 mg/kg/injection, schedule: Q01DX009 (ip), vehicle: saline with Tween-80) was 95 % of control, the T/C (dose: 50.0 mg/kg/injection, schedule: Q01DX009 (ip), vehicle: Klucel (hydroxypropylcellulose) (HPC)) was 100 % of control and the T/C [6] was 100 % of control. The T/C (dose: 100.0 mg/kg/injection, schedule: Q01DX009 (ip), vehicle: Klucel (hydroxypropylcellulose) (HPC)) was 115 % of control, the T/C [7] was 91 % of control and the T/C [1] was 115 % of control. The T/C [8] was 104 % of control, the T/C [9] was 104 % of control and the T/C (dose: 400.0 mg/kg/injection, schedule: Q04DX003 (ip), vehicle: Klucel (hydroxypropylcellulose) (HPC)) was 109 % of control.
